Data from publication PMC13415800 (Pharmaceutics, 2026).
Entries after “also recorded” stand apart in the source; their conditions may differ.

Columns and labels:
Vero E6 cells = assay: Phospholipidosis assay (LipidTOX Deep Red); assay type: cell-based, African green monkey (Cercopithecus aethiops); conditions: 48 h
Experimental: Vero E6 cells were seeded in 96-well plates and treated with compound 7 at the indicated concentrations for 48 h. Propranolol (30 µM) was used as a positive control and DMSO as vehicle control. Phospholipid accumulation was detected using LipidTOX™ Deep Red phospholipidosis stain (Thermo Fisher Scientific, Waltham, MA, USA, H34158) according to the manufacturer’s instructions. Nuclei were counterstained with Hoechst 33342. Representative images were acquired by confocal microscopy.

ZIKV [1] = assay: Virion inactivation assay (cell-free pre-incubation, plaque assay); assay type: cell-based, Zika virus
ZIKV [2] = assay: Time of drug addition assay (qRT-PCR); assay type: cell-based, Zika virus; conditions: Vero E6, MOI 1, 50 µM, 24 h pi
Experimental: Vero E6 cells were seeded on 96-well plates at 3.5 × 10^4 well and incubated (37 °C, 5% CO2) overnight. The cells were infected for 1 h with MOI of 1. Cells were treated with 50 µM of compound 7. Cells were treated at three different times: 1 h before infection, concurrently with the infection, and one hour post-infection. After the infection, the supernatant was discarded and the cells were incubated for 24 h with the media, then RNA was isolated from the supernatant and quantified using qRT-PCR (see below).
(§1) For viral RNA isolation, the Total RNA Miniprep Kit (New England Biolabs, Ipswich, USA) was used, following the manufacturer’s instruction. After RNA elution, samples were stored at −80 °C until use. For the determination of viral RNA quantity, we used the Luna® Universal Probe One-Step RT-qPCR Kit (New England Biolabs, Ipswich, MA, USA). The primers used were ZIKV_NS1_F: […], ZIKV_NS1_R: […], and the probe was FAM-5′-CCC GCA GAT-3′ /ZEN/ 5′-TGG CAG CAG-3′-BHQ1. […]
We divided the samples into five groups based on the timing of treatment: no-treatment (ZIKV), pre-treatment for 1 h (pre), co-treatment (co), post-treatment for 1 h (post), and full treatment (full) (Figure 3A). Twenty-four hours post-infection (pi), we isolated viral RNA from the supernatant and quantified it using qRT-PCR. […]

ZIKV [3] = assay: Liposome-based capsid protection assay (virus–liposome fusion); assay type: biochemical, Zika virus; conditions: trypsin-containing liposomes; pH 5.3; 10, 50 μM
ZIKV (MR766, Uganda) = assay type: cell-based, Zika virus; conditions: Vero E6; ZIKV MOI 1; five days; highest concentration without cytotoxicity (MCC)
ZIKV [4] = assay: Virion destabilization assay (RNase A, qRT-PCR); assay type: biochemical, Zika virus; conditions: 50 µM, 1 h, 37 °C, then RNase A
ZIKV [5] = assay: Entry assay (qRT-PCR); assay type: cell-based, Zika virus; conditions: Vero E6; MOI 1; infection 1 h 4 °C, then 50 µM 1 h 37 °C
Experimental: (§2) Vero E6 cells were seeded on 96 well plate 3.5 × 10^4 well and incubated (37 °C, 5% CO2) overnight. 1 h before the infection we put the cells at 4 °C. During the entry assay cells were infected for 1 h at 4 °C and MOI of 1, then washed twice with PBS. Afterward, they were treated with 50 µM of compound 7, lasting for 1 h (37 °C, 5% CO2). During the binding assay the cells were infected as before for 1 h at 4 °C and at the same time treated with 50 µM of compound 7. Following both of the treatments, the cells were washed once with PBS, then RNA was isolated from the cells. Viral RNA was quantified using qRT-PCR (see below). This assay was developed based on the methods established by Lu et al..
as §1
(§3) To gain a more precise understanding of the mechanism of action of compound 7, binding and entry assays were performed. […] After incubation, cells were washed with PBS prior to RNA extraction, and viral RNA levels were quantified by qRT-PCR.

ZIKV [6] = assay: Binding assay (qRT-PCR); assay type: cell-based, Zika virus; conditions: Vero E6; MOI 1; 50 µM; 1 h at 4 °C
Experimental: as §2, §1, §3

Vero E6 cell line [7] = conditions: compound concentration producing minimal changes in cell morphology, estimated by microscopy
Vero E6 cell line [8] = conditions: for CC50: MTT
CHIKV (Guatemala) = assay: CPE inhibition assay, CHIKV on Vero E6; assay type: cell-based, chikungunya virus; conditions: MOI 0.1, 3 days, MTT
[9] = tested on: SARS-CoV-2 (B.1.5 (G) isolate, Hungarian); assay type: cell-based, severe acute respiratory syndrome coronavirus 2; conditions: Vero E6, 3 days, MTT

CC(=O)NC1C(OC2c3ccc(c(Cl)c3)Oc3cc4cc(c3O)Oc3ccc(cc3Cl)CC3NC(=O)C(NC(=O)CCC(F)(F)C(F)(F)C(F)(F)C(F)(F)C(F)(F)C(F)(F)F)c5ccc(O)c(c5)Oc5cc(O)cc(c5)C(NC3=O)C(=O)NC4C(=O)NC3C(=O)NC2C(=O)NC(C(=O)O)c2cc(O)cc(O)c2-c2cc3ccc2O)OC(CO)C(O)C1O (stereo not drawn) [Compound 7]
concentration from which phospholipidosis is detectable (Vero E6 cells): ≥ 2500 nM | phospholipidosis response (Vero E6 cells; positive control propranolol 30 µM): weak phospholipidosis response | reduction of viral titer vs untreated control (ZIKV [1]): approximately one order of magnitude | viral RNA level vs no-treatment, pre-treatment (before infection) (ZIKV [2]; 1 h before infection): No significant inhibition | viral RNA level vs no-treatment, post-treatment (after viral entry) (ZIKV [2]; 1 h post-infection): No significant inhibition | capsid protein signal under low-pH fusion conditions (Western blot) (ZIKV [3]): preserved the capsid signal | cytopathic effects (microscopy) (ZIKV (MR766, Uganda)): No cytopathic effects were observed | viral RNA copy number vs negative control (virion integrity) (ZIKV [4]): No significant reduction | viral RNA level, entry assay, treated vs control (ZIKV [5]): No significant differences | viral RNA level, binding assay, treated vs control (ZIKV [6]): No significant differences | MCC (Vero E6 cell line [7]): >60 µM | CC50 (Vero E6 cell line [8]): 203 µM

CC(=O)N[C@H]1[C@H](O[C@@H]2c3ccc(c(Cl)c3)Oc3cc4cc(c3O)Oc3ccc(cc3Cl)C[C@H]3NC(=O)[C@H](n5cc(COCCOCCCC(F)(F)C(F)(F)C(F)(F)C(F)(F)F)nn5)c5ccc(O)c(c5)Oc5cc(O)cc(c5)[C@H](NC3=O)C(=O)N[C@H]4C(=O)N[C@H]3C(=O)N[C@@H]2C(=O)N[C@H](C(=O)O)c2cc(O)cc(O)c2-c2cc3ccc2O)O[C@H](CO)[C@@H](O)[C@@H]1O [Compound 3]
cytopathic effects (microscopy) (ZIKV (MR766, Uganda)): we did not observed any CPE; also recorded: No cytopathic effects were observed | MCC (Vero E6 cell line [7]): >50 µM | CC50 (Vero E6 cell line [8]): 198 µM

CC(=O)N[C@H]1[C@H](O[C@@H]2c3ccc(c(Cl)c3)Oc3cc4cc(c3O)Oc3ccc(cc3Cl)C[C@H]3NC(=O)[C@H](n5cc(COCCOCCCC(F)(F)C(F)(F)C(F)(F)C(F)(F)C(F)(F)C(F)(F)C(F)(F)C(F)(F)F)nn5)c5ccc(O)c(c5)Oc5cc(O)cc(c5)[C@H](NC3=O)C(=O)N[C@H]4C(=O)N[C@H]3C(=O)N[C@@H]2C(=O)N[C@H](C(=O)O)c2cc(O)cc(O)c2-c2cc3ccc2O)O[C@H](CO)[C@@H](O)[C@@H]1O [Compound 1]
MCC (Vero E6 cell line [7]): >50 µM | CC50 (Vero E6 cell line [8]): 149 µM

CC(=O)N[C@H]1[C@H](O[C@@H]2c3ccc(c(Cl)c3)Oc3cc4cc(c3O)Oc3ccc(cc3Cl)C[C@H]3NC(=O)[C@H](n5cc(COCCOCCCC(F)(F)C(F)(F)C(F)(F)C(F)(F)C(F)(F)C(F)(F)F)nn5)c5ccc(O)c(c5)Oc5cc(O)cc(c5)[C@H](NC3=O)C(=O)N[C@H]4C(=O)N[C@H]3C(=O)N[C@@H]2C(=O)N[C@H](C(=O)O)c2cc(O)cc(O)c2-c2cc3ccc2O)O[C@H](CO)[C@@H](O)[C@@H]1O [Compound 2]
cytopathic effects (microscopy) (ZIKV (MR766, Uganda)): we did not observed any CPE; also recorded: No cytopathic effects were observed | MCC (Vero E6 cell line [7]): >40 µM | CC50 (Vero E6 cell line [8]): 195 µM

COC(=O)C1NC(=O)C2NC(=O)C(NC(=O)C3NC(=O)C4NC(=O)C(NC(=O)C(NC(=O)CCC(F)(F)C(F)(F)C(F)(F)C(F)(F)C(F)(F)C(F)(F)C(F)(F)C(F)(F)F)c5ccc(O)c(c5)Oc5cc4cc(O)c5C)C(O)c4ccc(cc4)Oc4cc3cc(c4O)Oc3ccc(cc3)C2O)c2ccc(O)c(c2)-c2c(O)cc(O)cc21 (stereo not drawn) [Compound 8]
MCC (Vero E6 cell line [7]): >20 µM | cytotoxic effects (in words) (Vero E6 cell line [8]): slightly cytotoxic | CC50 (Vero E6 cell line [8]): 62.6 µM

Teicoplanin [reference compound]
EC50 (CHIKV (Guatemala)): 86.2 µM | EC50 [9]: 33.9 µM | MCC (Vero E6 cell line [7]): >60 µM | CC50 (Vero E6 cell line [8]): 280 µM

CC(=O)N[C@H]1[C@H](O[C@@H]2c3ccc(c(Cl)c3)Oc3cc4cc(c3O)Oc3ccc(cc3Cl)C[C@H]3NC(=O)[C@H](NC(=O)CCC(F)(F)C(F)(F)C(F)(F)C(F)(F)C(F)(F)C(F)(F)C(F)(F)C(F)(F)F)c5ccc(O)c(c5)Oc5cc(O)cc(c5)[C@H](NC3=O)C(=O)N[C@H]4C(=O)N[C@H]3C(=O)N[C@@H]2C(=O)N[C@H](C(=O)O)c2cc(O)cc(O)c2-c2cc3ccc2O)O[C@H](CO)[C@@H](O)[C@@H]1O [Compound 6]
cytopathic effects (microscopy) (ZIKV (MR766, Uganda)): we did not observed any CPE; also recorded: No cytopathic effects were observed | MCC (Vero E6 cell line [7]): >60 µM | CC50 (Vero E6 cell line [8]): 175 µM
